Test results: article PMC10401705, “Imaging Saturation Transfer Difference (STD) NMR: Affinity and Specificity of Protein–Ligand Interactions from a Single NMR Sample” (Journal of the American Chemical Society, 2023)

How the values were obtained:
[1] = target: T1, wheat germ agglutinin (WGA); assay: imaging STD NMR, initial slopes (STD-AF0), Langmuir fit; format: binding, Triticum aestivum
T1 construct: gene WGA1

[2] = target: T2, bovine serum albumin (BSA) (Bos taurus, UniProt P02769); assay: as above; format: binding
T2 construct: gene ALB
T2 sequence (P02769 25-607): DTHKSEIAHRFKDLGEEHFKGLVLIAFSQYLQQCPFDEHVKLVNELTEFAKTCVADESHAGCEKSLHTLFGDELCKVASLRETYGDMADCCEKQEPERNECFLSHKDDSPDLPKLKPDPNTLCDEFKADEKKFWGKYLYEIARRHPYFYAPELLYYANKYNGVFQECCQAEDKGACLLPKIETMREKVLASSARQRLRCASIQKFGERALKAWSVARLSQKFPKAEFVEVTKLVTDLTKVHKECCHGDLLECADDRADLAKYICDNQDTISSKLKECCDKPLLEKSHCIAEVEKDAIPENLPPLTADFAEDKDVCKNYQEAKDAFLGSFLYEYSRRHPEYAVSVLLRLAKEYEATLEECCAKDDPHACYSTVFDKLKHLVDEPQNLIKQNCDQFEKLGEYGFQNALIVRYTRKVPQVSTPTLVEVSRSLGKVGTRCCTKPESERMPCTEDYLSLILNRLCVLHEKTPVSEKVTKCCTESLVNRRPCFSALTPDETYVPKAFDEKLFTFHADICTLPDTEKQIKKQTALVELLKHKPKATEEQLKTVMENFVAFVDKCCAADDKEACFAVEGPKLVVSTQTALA

Row | Kd [1] | Kd [2] | Compound
1 | 2240 ± 180 µM |  | CC(=O)N[C@H]1C(O)O[C@H](CO)[C@@H](O)[C@@H]1O (some centres unmarked) [GlcNAc]
2 |  | 231 ± 50 µM | N[C@@H](Cc1c[nH]c2ccccc12)C(=O)O [tryptophan]
